Patent publication US5872150A, “Treatment of prostate disease with a nonsteroidal anti-androgenic compound” (Merck & Co., Inc., priority 1997, dated 1999)
“Also recorded” adds a separate entry of the source.

Key:
[1] = target: T1, androgen receptor (Homo sapiens, UniProt P10275); assay: Binding to the human androgen receptor (hAR), displacement of [3H]-DHT, stable CHO transfectants; design: expressed in transfected cells; cytosol, 100,000×g supernatant; details: stable transfectants of CHO cells
T1 sequence (P10275 1-920): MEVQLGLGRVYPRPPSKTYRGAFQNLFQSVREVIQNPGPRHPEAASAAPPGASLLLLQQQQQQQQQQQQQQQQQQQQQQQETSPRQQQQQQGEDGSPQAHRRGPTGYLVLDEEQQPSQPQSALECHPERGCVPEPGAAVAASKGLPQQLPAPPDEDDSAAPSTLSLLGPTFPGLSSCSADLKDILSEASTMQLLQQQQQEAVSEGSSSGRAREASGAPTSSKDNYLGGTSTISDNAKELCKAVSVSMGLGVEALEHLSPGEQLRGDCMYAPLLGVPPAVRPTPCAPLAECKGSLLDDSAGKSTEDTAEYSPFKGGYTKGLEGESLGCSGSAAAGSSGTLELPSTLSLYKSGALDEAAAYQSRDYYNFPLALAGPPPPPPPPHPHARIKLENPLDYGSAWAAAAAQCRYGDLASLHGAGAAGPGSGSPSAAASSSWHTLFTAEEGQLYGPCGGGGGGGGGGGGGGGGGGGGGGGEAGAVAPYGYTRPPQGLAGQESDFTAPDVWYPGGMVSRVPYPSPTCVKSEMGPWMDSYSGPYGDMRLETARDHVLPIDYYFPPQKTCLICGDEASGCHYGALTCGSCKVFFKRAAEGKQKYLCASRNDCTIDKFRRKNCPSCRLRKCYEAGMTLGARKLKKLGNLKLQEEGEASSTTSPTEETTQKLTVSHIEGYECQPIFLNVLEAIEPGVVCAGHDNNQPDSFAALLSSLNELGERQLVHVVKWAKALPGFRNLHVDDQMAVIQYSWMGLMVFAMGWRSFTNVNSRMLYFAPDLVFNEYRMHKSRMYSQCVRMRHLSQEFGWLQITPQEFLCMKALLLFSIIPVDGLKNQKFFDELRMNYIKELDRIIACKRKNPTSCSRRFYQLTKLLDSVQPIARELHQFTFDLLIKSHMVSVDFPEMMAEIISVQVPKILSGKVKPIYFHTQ
Description: Binding to the Androgen Receptor
All samples were prepared in duplicate. […] Free steroids were removed by addition of dextran-coated charcoal followed by centrifugation at 3,000×g for fifteen minutes at 4° C.
47: 1080-1088 (1995) except that stable transfectants of CHO cells were employed (gift from Prof. Michael McPhaul Southwestern Medical Center, Dallas, Tex.) that typically express 30-80 fmoles receptor/mg soluble protein.

[2] = test system: DDT1 cells; assay: DDT1 Assay: androgen (testosterone) dependent growth of DDT1 cells, MTS proliferation; type: cell-based, Syrian hamster
Description: Cells were plated in a 96 well plate at 2,000 cells/well in DFITS+0.1% fetal calf serum. […] Cell growth data were normalized to the greatest number of cells and error bars represent +/- one standard error of the mean (sem).
Media was charged every 48 hours. Cells were plated at ~2,000/well in 96-well plates or ~6,000 cells/cm^2 in DMEM: F12 (GIBCO BRL) nutrient mixture (1:)+ITS™ (insulin, transferrin, selenious acid) (Collaborative Biomedical Products/Becton Dickinson Labware) (final concentrations 5 μg/mL insulin, 5 μ/mL transferrin, 5 ng/mL selenious acid) (DFITS media)+0.1% bovine calf serum (Hyclon®, BCS defined, iron supplemented).
After 24 hours, the cells were washed with the same media except without added serum and replaced with fresh serum-free DFITS medium (day 0).
In a typical experiment, cells were plated in sets of 12 in the presence of either a mock ethanol control (0.1-0.2% total volume) or N-(4-chlorophenyl)-(Z,Z)-2,3-bis(cyclopropylmethylene) cyclopentane carboxamide dissolved in 100% ethanol as a 1000X concentrated stock solution. Cell growth was then measured using a CellTiter96™ Non-Radioactive Cell Proliferation Assay (Promega Corporation) according to the manufacturer's protocol using a Bio Kinetics EL 340 microplate reader (BioTek Instruments, Inc.). 3-(4,5-dimethylthiazol-2-yl)-5-(3-carboxyl methoxyphenyl)-2-(4-sulfophenyl)-2H-tetrazolium (MTS) was diluted into media at a final concentration of 333 μg/mL and penazine methosulfate (PMS) was used at a final concentration of 25 μM with a total volume per well of 100 μL. Plates were then incubated for one hour at 37° C. in a humidified 5% CO2 atmosphere.

[3] = target: T1, androgen receptor; assay: Ligand dependent transcription assay, CV1 cells co-transfected with AR and probasin luciferase reporter (pPBluc + AR); type: cell-based; design: expressed in transfected cells; host or cells: CV1 cells, transient co-transfection of pSGAR with the probasin-luciferase reporter pPBluc
Description: FIG. 2 is a graph showing the effect of N-(4-chlorophenyl)-(Z,Z)-2,3-bis(cyclopropyl-methylene)cyclopentane carboxamide on the activation of the androgen receptor in CV1 cells, as described in Example 4.
(§1) Ligand dependent transcription assays were performed as described in Schnmidt et al. "Identification of a new member of the steroid hormone receptor superfamily that is activated by a peroxisome proliferator and fatty acids," Mol. Endocrinol. 6:1634-1641 (1992). A luciferase cDNA expressed under the control of the promoter region of the probasin gene that confers androgen receptor dependent transcription was used as a reporter gene, see Rennie et al. "Characterization of two cis-acting DNA elements involved in the androgen regulation of the probasin gene" Mol Endocrinol. 7:23-36 (1993). The promoter region, -426 to +40 of the rat probasin gene was amplified by polymerase chain reaction (PCR) and inserted upstream of the luciferase cDNA of pGL3 Basic plasmid (Promega). The expression vector pSGAR that expressed the normal human AR was used as a source of receptor, see, Chang et al. "Molecular cloning of human and rat complementary DNA encoding androgen receptors," Science 240:324-326 (1988). Transient transfection of CV1 cells was performed by plating cells (1.5×10^5 per mL) into 12 well dishes in phenol red-free medium supplemented with 10% fetal calf serum treated with activated charcoal to remove endogenous steroids. Cells were then transfected the following day by addition of a calcium phosphate precipitate of plasmid DNA. Cells were then washed with fresh media after an overnight incubation and ligands were added. Cell extracts were prepared after forty eight hours and assayed for luciferase enzyme activity using the Luciferase Assay System (Promega). Each transfection was performed in triplicate and the […] of each sample was measured using the AutoChemiluminometer (Berthold).

[4] = test system: probasin luciferase reporter gene; assay: Ligand dependent transcription assay, CV1 cells with probasin reporter gene and control plasmid, no AR (pPBluc); type: cell-based, rat
Description: as §1, with “6:1634-1641 (1992).” left out, “7:23-36 (1993). The promoter region, -426 to +40 of the rat probasin gene was amplified by polymerase chain reaction (PCR) and inserted upstream of the luciferase cDNA of pGL3 Basic plasmid (Promega). The expression vector pSGAR that expressed the normal human AR was used as a source of receptor, see, Chang et al. "Molecular cloning of human and rat complementary DNA encoding androgen receptors," Science 240:324-326 (1988).” left out

| SMILES | blocking of the binding of 3H-DHT [1] | antagonism of the action of testosterone on DDT1 cells [2] | inhibition of testosterone-induced DDT1 cell growth, comparison with hydroxyflutamide [2] | effect on testosterone-induced cell proliferation ([2]; compound at 10 μM with 10 nM testosterone) | effect on cell proliferation, compound alone ([2]; without testosterone, serum-free medium) | inhibition of transactivation mediated by DHT ([3]; CV1 cells, 10 nM DHT) | luciferase expression from the pPBluc reporter gene, compound alone ([3]; CV1 cells, without DHT) | IC50 ([3]; read-out: Fifty percent inhibition of transactivation) [nM] | pPBluc, Light Units ± std ([4]; DHT 10^-7 M) [Light Units] | pPBluc, Light Units ± std ([4]; DHT 10^-9 M) [Light Units] |
| --- | --- | --- | --- | --- | --- | --- | --- | --- | --- | --- |
| O=C(Nc1ccc(Cl)cc1)C1CCC(=C/C2CC2)/C1=C\C1CC1 (stereo not shown) [N-(4-chlorophenyl)-(Z,Z)-2,3-bis(cyclopropylmethylene)cyclopentane carboxamide] | blocks the binding of ^3 H-DHT to the human androgen receptor expressed in stable transfectants of CHO cells at doses comparable to those that antagonize testosterone in DDT1 cells | antagonizes the action of testosterone on DDT1 cells | inhibits testosterone-induced DDT1 cell growth in a manner similar to that of hydroxyflutamide | reduced cell proliferation to levels close to that of the ethanol mock control | little or no effect on cell growth by itself; also recorded: little or no effect on cell proliferation | inhibited the transactivation mediated by DHT in a dose dependent manner | did not affect luciferase expression | ~2000 |  |  |
| C[C@]12CCC(=O)C[C@@H]1CC[C@@H]1[C@@H]2CC[C@]2(C)[C@@H](O)CC[C@@H]12 [DHT, 5α-dihydrotestosterone] |  |  |  |  |  |  |  |  | 3300 ± 1100 | 3000 ± 300 |
